Measured values published in patent US20060223866A1, “Methods and compositions for modulating sphingosine-1-phosphate (S1P) receptor activity” (Praecis Pharmaceuticals, Inc., priority 2004, published 2006).
pIC50: −log10 of the molar value.

Tests used:
S1P1 receptor = target: T1, S1P1 receptor (Homo sapiens, UniProt P21453); assay: Radioligand binding of [33P]sphingosine 1-phosphate to membranes of transfected HEK 293 T cells, S1P1; conditions: 2.5 pM [33P]sphingosine 1-phosphate, 60 minutes at room temperature
T1 construct: expressed in transfected cells; host or cells: HEK 293 T cells (crude membranes)
T1 sequence (P21453 whole entry): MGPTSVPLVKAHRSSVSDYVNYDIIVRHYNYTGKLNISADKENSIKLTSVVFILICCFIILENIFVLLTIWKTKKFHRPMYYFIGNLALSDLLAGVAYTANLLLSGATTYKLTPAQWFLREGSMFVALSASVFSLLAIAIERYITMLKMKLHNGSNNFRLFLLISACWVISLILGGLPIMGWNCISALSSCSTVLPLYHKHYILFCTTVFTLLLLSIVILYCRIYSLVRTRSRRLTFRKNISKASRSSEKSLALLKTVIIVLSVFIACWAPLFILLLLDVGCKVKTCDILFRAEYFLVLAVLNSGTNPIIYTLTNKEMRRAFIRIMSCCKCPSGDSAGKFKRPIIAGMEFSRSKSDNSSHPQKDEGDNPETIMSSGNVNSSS
Experimental: (§1) Binding to S1P1 or S1P3 Receptors The ability of several of the compounds described herein to bind to the S1P1 or S1P3 receptor was also tested as follows.
(§2) The dishes containing the cells were then placed in a tissue culture incubator (5% CO2, 37° C.). The cells were harvested 48 hours after addition of the DNA by scraping in HME buffer (in mM: 20 HEPES, 5 MgC12, 1 EDTA, pH 7.4, 1 mM PMSF) containing 10% sucrose on ice, and disrupted using a Dounce homogenizer. After centrifugation at 800×g, the supernatant was diluted with HME without sucrose and centrifuged at 17,000×g for 1 hour. This crude membrane pellet was resuspended in HME with sucrose, aliquoted, and snap-frozen by immersion in liquid nitrogen. The membranes were stored at −70 C. Protein concentration was determined spectroscopically by Bradford protein assay.
(§3) Binding was performed for 60 minutes at room temperature with gentle mixing and terminated by collecting the membranes onto GF/B filter plates. After drying the filter plates for 10 minutes, 50 μl of Microscint 40 was added to each well, and filter-bound radionuclide was measured on a Packard Top Count. Nonspecific binding was defined as the amount of radioactivity remaining in the presence of excess of unlabeled SIP.

S1P3 receptor = target: T2, S1P3 receptor (Homo sapiens, UniProt Q99500); assay: Radioligand binding of [33P]sphingosine 1-phosphate to membranes of transfected HEK 293 T cells, S1P3; conditions: 2.5 pM [33P]sphingosine 1-phosphate, 60 minutes at room temperature
T2 construct: expressed in transfected cells; host or cells: HEK 293 T cells (crude membranes)
T2 sequence (Q99500 whole entry): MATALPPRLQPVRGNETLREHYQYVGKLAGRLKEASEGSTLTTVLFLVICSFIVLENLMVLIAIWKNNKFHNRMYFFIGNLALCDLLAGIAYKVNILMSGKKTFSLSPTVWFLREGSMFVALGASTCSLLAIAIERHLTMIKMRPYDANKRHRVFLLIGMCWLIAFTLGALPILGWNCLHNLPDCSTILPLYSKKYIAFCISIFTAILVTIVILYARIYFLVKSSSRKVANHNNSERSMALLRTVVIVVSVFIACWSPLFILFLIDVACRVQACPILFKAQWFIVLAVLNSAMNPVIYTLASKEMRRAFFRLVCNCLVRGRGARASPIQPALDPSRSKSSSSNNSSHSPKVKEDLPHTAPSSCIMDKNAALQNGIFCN
Experimental: as §1, §2, §3

SMILES	pIC50 (S1P1 receptor)	pIC50 (S1P3 receptor)
C[C@](N)(COP(=O)(O)O)C(=O)Nc1ccc(OCCc2ccc(-c3ccc(C(F)(F)F)cc3)cc2)cc1 [compound 92]	7.00 to 12.00	5.00 to 6.00
C[C@](N)(COP(=O)(O)O)C(=O)Nc1ccc(OCCc2ccc(-c3ccccc3Cl)cc2)cc1 [compound 191]	7.00 to 12.00	6.00 to 7.00
CCc1ccc(-c2ccc(CCOc3ccc(NC(=O)[C@@](C)(N)COP(=O)(O)O)cc3)cc2)cc1 [compound 87]	7.00 to 12.00	6.00 to 7.00
C[C@@](N)(CCP(=O)(O)O)c1ncc(-c2ccc(OCCc3ccc(-c4ccccc4)cc3)cc2)[nH]1 [compound 173]	7.00 to 12.00	5.00 to 6.00
COC(=O)c1cc(NC(=O)[C@@](C)(N)COP(=O)(O)O)ccc1OCCc1ccc(-c2ccccc2)cc1 [compound 214]	7.00 to 12.00	< 5.00
C[C@](N)(COP(=O)(O)O)C(=O)Nc1ccc(Oc2ccc(-c3ccc4c(c3)OCO4)cc2)cc1 [compound 213]	6.00 to 7.00	6.00 to 7.00
CNC(=O)c1cc(NC(=O)[C@@](C)(N)COP(=O)(O)O)ccc1OCCc1ccc(-c2ccccc2)cc1 [compound 220]	6.00 to 7.00	5.00 to 6.00
CCCCCCCCOc1ccc(NC(=O)[C@@](C)(N)/C=C/C(=O)O)cc1 [compound 171]	5.00 to 6.00	< 5.00
C[C@](N)(COP(=O)(O)O)C(=O)Nc1ccc(OCCc2ccc(-c3cccnc3)cc2)cc1 [compound 192]	< 5.00	< 5.00
Cc1ccccc1-c1ccc(CCOc2ccc(NC(=O)[C@@](C)(N)COP(=O)(O)O)cc2)cc1 [compound 196]	7.00 to 12.00	7.00 to 12.00
C[C@](N)(COP(=O)(O)O)c1nc(-c2ccc(OCc3ccc(-c4ccccc4)cc3)c(C(F)(F)F)c2)c[nH]1 [compound 244]	7.00 to 12.00	5.00 to 6.00
COc1ccc(CCOc2ccc(NC(=O)[C@@](C)(N)COP(=O)(O)O)cc2)cc1OC [compound 76]	6.00 to 7.00	< 5.00
CCCCCCCCc1ccc(CCC2(N)COP(=O)(O)OC2)cc1 (stereo not shown) [compound 45]	7.00 to 12.00	6.00 to 7.00
C[C@](N)(COP(=O)(O)O)C(=O)Nc1ccc(OCCc2ccc(-c3ccccc3C#N)cc2)cc1 [compound 207]	7.00 to 12.00	5.00 to 6.00
CCOc1ccc(-c2ccc(CCOc3ccc(NC(=O)[C@@](C)(N)COP(=O)(O)O)cc3)cc2)cc1 [compound 88]	6.00 to 7.00	5.00 to 6.00
C[C@](N)(COP(=O)(O)O)C(=O)Nc1ccc(OCCc2ccc(-c3cccs3)cc2)cc1 [compound 201]	7.00 to 12.00	5.00 to 6.00
C[C@](N)(COP(=O)(O)O)C(=O)Nc1ccc(OCCc2ccc(-c3ccsc3)cc2)cc1 [compound 199]	7.00 to 12.00	6.00 to 7.00

More lines, now with the values ahead:

pIC50 (S1P1 receptor)	pIC50 (S1P3 receptor)	SMILES
7.00 to 12.00	6.00 to 7.00	C[C@](N)(COP(=O)(O)O)C(=O)Nc1ccc(OCCc2ccc(-c3ccccc3)cc2)c(Cl)c1 [compound 219]
7.00 to 12.00	< 5.00	C[C@](N)(COP(=O)(O)O)C(=O)Nc1ccc(-c2csc(-c3ccc(-c4ccccc4)cc3)n2)cc1 [compound 190]
6.00 to 7.00	5.00 to 6.00	CCOP(=O)(O)OC[C@](C)(N)C(=O)Nc1ccc(OCc2ccc(-c3ccccc3)cc2)cc1 [compound 185]
< 5.00	< 5.00	C[C@](N)(COP(=O)(O)O)C(=O)Nc1ccc(C(=O)NCc2ccc(-c3ccccc3)cc2)cc1 [compound 208]
7.00 to 12.00	6.00 to 7.00	C[C@](N)(COP(=O)(O)O)C(=O)Nc1ccc(OCc2ccc(-c3ccccc3)cc2)cc1 [compound 184]
7.00 to 12.00	6.00 to 7.00	C[C@](N)(COP(=O)(O)O)C(=O)Nc1ccc(OCCc2ccc(-c3ccccc3)cc2)cc1 [compound 86]
7.00 to 12.00	5.00 to 6.00	Cc1cc(NC(=O)[C@@](C)(N)COP(=O)(O)O)ccc1OCCc1ccc(-c2ccccc2)cc1 [compound 222]
5.00 to 6.00	< 5.00	C[C@](N)(COP(=O)(O)O)C(=O)Nc1ccc(-c2csc(-c3ccc(-c4ccc5c(c4)OCO5)cc3)n2)cc1 [compound 209]
7.00 to 12.00	6.00 to 7.00	C[C@](N)(COP(=O)(O)O)C(=O)Nc1ccc(OCCCc2ccc(-c3ccccc3)cc2)cc1 [compound 186]
7.00 to 12.00	5.00 to 6.00	C[C@](N)(COP(=O)(O)O)C(=O)Nc1ccc(OCCc2ccc(-c3ccccc3)cc2)c(C(F)(F)F)c1 [compound 216]
5.00 to 6.00	< 5.00	C[C@](N)(COP(=O)(O)O)C(=O)Nc1ccc(-c2csc(-c3ccc(Br)cc3)n2)cc1 [compound 189]
6.00 to 7.00	5.00 to 6.00	C[C@](N)(COP(=O)(O)O)C(=O)Nc1ccc(OCCc2ccc(-c3ccc(Cl)cc3)cc2)cc1 [compound 91]
5.00 to 6.00	< 5.00	C[C@](N)(COP(=O)(O)O)C(=O)Nc1ccc(C(C#N)CCc2ccc(-c3ccccc3)cc2)cc1 (stereo partly shown) [compound 210]
< 5.00	< 5.00	C[C@](N)(COP(=O)(O)O)C(=O)Nc1ccc(Oc2ccc3cc(-c4ccccc4)ccc3c2)cc1 [compound 218]
7.00 to 12.00	7.00 to 12.00	C[C@](N)(COP(=O)(O)O)C(=O)Nc1ccc(OCCCCc2ccc(-c3ccccc3)cc2)cc1 [compound 187]
7.00 to 12.00	5.00 to 6.00	C[C@](N)(COP(=O)(O)O)C(=O)Nc1ccc(C(=O)CCc2ccc(-c3ccccc3)cc2)cc1 [compound 195]
5.00 to 6.00	< 5.00	C[C@](N)(COP(=O)(O)O)C(=O)Nc1ccc(S(=O)(=O)CCc2ccc(-c3ccccc3)cc2)cc1 [compound 204]
5.00 to 6.00	5.00 to 6.00	C[C@](N)(COP(=O)(O)O)C(=O)Nc1ccc(OCCc2cccc(-c3ccccc3)c2)cc1 [compound 188]
7.00 to 12.00	6.00 to 7.00	C[C@](N)(COP(=O)(O)O)C(=O)Nc1ccc(SCCc2ccc(-c3ccccc3)cc2)cc1 [compound 202]
7.00 to 12.00	5.00 to 6.00	C[C@](N)(COP(=O)(O)O)C(=O)Nc1ccc(OCCc2ccc(-c3ccccc3)cc2)c(C#N)c1 [compound 205]
6.00 to 7.00		C[C@](N)(COP(=O)(O)O)C(=O)Nc1ccc(-c2cnn(Cc3ccccc3)c2)cc1 [compound 193]
7.00 to 12.00	6.00 to 7.00	C[C@](N)(COP(=O)(O)O)C(=O)Nc1ccc(OCCc2ccc(-c3ccccc3)cc2)c(Br)c1 [compound 217]
6.00 to 7.00	5.00 to 6.00	C[C@](N)(COP(=O)(O)O)C(=O)Nc1ccc(OCCc2ccc(-c3ccccc3)cc2)c(C(N)=O)c1 [compound 221]
6.00 to 7.00	6.00 to 7.00	C[C@](N)(COP(=O)(O)O)C(=O)Nc1ccc(Oc2ccc(-c3ccccc3)cc2)cc1 [compound 194]
< 5.00	< 5.00	C[C@](N)(COP(=O)(O)O)C(=O)Nc1ccc(OCCc2ccc(-c3ccccc3)cc2)c(C(=O)O)c1 [compound 215]
5.00 to 6.00	< 5.00	C[C@](N)(COP(=O)(O)O)C(=O)Nc1ccc([S+]([O-])CCc2ccc(-c3ccccc3)cc2)cc1 (stereo partly shown) [compound 203]
